# Experimental data from patent US11576933B2, “Compositions and methods for an improved antitumor immune response” (EFFECTOR THERAPEUTICS, INC., priority 2017, dated 2023).
# Columns and labels:
# [1] = system: fibroblasts (Lonza #CC-2512); assay: Procollagen type 1 C-Peptide (PIPC) secretion from fibroblasts co-treated with TGFβ, (PIP) EIA kit; type: cell-based; conditions: 24 hours co-incubation with 10 ng/ml TGFβ; inhibitor 0, 1.5, 4, 13 or 40 nM; FIGS. 2A and 2B
# Experimental: (§1) Myofibroblasts are believed to be associated with tumor growth, vascularization, and metastasis (see, e.g., Webber et al., Cancer Res. 70:9621, 2010). The ability of Cmp1 or Cmp2 to inhibit the TGFβ-mediated fibroblast-to-myofibroblast transformation and components of the extracellular matrix was evaluated in fibroblasts.
# (§2) Briefly, fibroblasts (Lonza #CC-2512; cell passage numbers 2 through 5 were used for all experiments) were seeded (Day 0) and cultured in Dulbecco's modified Eagle medium (DMEM) supplemented with 10% fetal bovine serum (FBS), penicillin, streptomycin and glutamax (Invitrogen) at 37° C. in a humidified incubator with 5% CO2 overnight. On Day 1, cells were washed with phosphate buffered saline (PBS), and then incubated for 48 hours in fresh serum-free DMEM supplemented with penicillin, streptomycin, and glutamax. […]
# (§3) After a 24-hour incubation period, the effects of eIF4A inhibition on fibroblast transformation and production of extracellular matrix components were evaluated. Smooth muscle actin (α-SMA) protein levels were analyzed by western blot. Procollagen type 1 C-Peptide (PIPC) levels were analyzed by collecting culture media, centrifuging to pellet cellular debris, and quantifying using the (PIP) EIA kit (Clontech, Cat. No. MK101) according to the manufacturer's instructions.
# myofibroblasts [2] = assay: Procollagen type 1 C-Peptide (PIPC) secretion from pre-formed myofibroblasts, (PIP) EIA kit; type: cell-based; conditions: myofibroblasts pre-formed with 10 ng/ml TGFβ 24 hours, washed; inhibitor 0-100 nM for 48 hours; FIG. 3B
# Experimental: (§4) Briefly, fibroblasts (Lonza #CC-2512; cell passage numbers 2 through 5 were used for all experiments) were seeded (Day 0) and cultured in Dulbecco's modified Eagle medium (DMEM) supplemented with 10% fetal bovine serum (FBS), penicillin, streptomycin and glutamax (Invitrogen) at 37° C. in a humidified incubator with 5% CO2 overnight. On Day 1, cells were washed with phosphate buffered saline (PBS), and then incubated for 72 hours in fresh serum-free DMEM supplemented with penicillin, streptomycin, and glutamax. On Day 4, cells were washed, followed by addition of fresh serum-free DMEM containing 10 ng/ml TGFβ, and cultured for 24 hours. On Day 5, cells were washed, followed by addition of fresh serum-free DMEM containing eIF4A inhibitor Cmp1 (0, 1.2, 3.7, 11.1, 33.3 or 100 nM), and cultured. Controls included untreated cells. At 48 hours post-addition of eIF4A inhibitor, 300 ul of culture media was harvested, centrifuged to pellet cellular debris, and frozen at −80° C. TGFβ1 in the culture medium was quantified using the Human TGF-B1 ELISA kit (R&D System DY240-05) according to the manufacturer's instructions. Procollagen type 1 C-Peptide (PIPC) levels were analyzed using the (PIP) EIA kit (Clontech, Cat. No. MK101) according to the manufacturer's instructions.
# myofibroblasts [3] = assay: TGFβ secretion from pre-formed myofibroblasts, Human TGF-B1 ELISA kit; type: cell-based; conditions: myofibroblasts pre-formed with 10 ng/ml TGFβ 24 hours, washed; inhibitor 0-100 nM for 48 hours; FIG. 3A
# Experimental: as §4
# [4] = system: fibroblasts (Lonza #CC-2512); assay: α-SMA protein level by western blot in fibroblasts co-treated with TGFβ (fibroblast-to-myofibroblast transformation); type: cell-based; conditions: 24 hours co-incubation with 10 ng/ml TGFβ, inhibitor 0, 1.5, 4, 13 or 40 nM, FIG. 1
# Experimental: as §1, §2, §3
# [5] = system: KPC-3 (mouse pancreatic carcinoma) tumor; assay: Tumor infiltrating lymphocytes (CD3+/CD8+ IHC) in allograft KPC-3 tumor model; type: in vivo; conditions: parenterally, C57BL/6J mice, versus vehicle; for CD3+ T cells in the KPC-3 tumor samples: FIG. 4B
# Experimental: To evaluate the effect of an eIF4A inhibitor on tumor infiltrating lymphocytes, an allograft tumor model was used. Briefly, KPC-3 (mouse pancreatic carcinoma) cells grown in DMEM supplemented with 10% FBS were harvested during exponential growth and counted for tumor inoculation in immune competent C57BL/6J mice. Each mouse was inoculated subcutaneously with 0.1×10^6 KPC-3 tumor cells in the right flank region in 0.1 mL volume comprising a 1:1 ratio (volume to volume) of cells in growth media and Matrigel® matrix (BD Biosciences, San Jose Calif.). Tumors were grown to 100-200 mm^3 prior to study initiation. Before beginning treatment, all animals were weighed and tumor volumes measured using a caliper. Since the tumor volume can affect the effectiveness of any given treatment, mice were randomly assigned into vehicle and test article treatment groups after tumors had reached a similar size. Each study group contained 8 mice, with each group receiving either vehicle (D5W) or Cmp1 administered parenterally on two dosing schedules (0.33 mg/kg Q2D and 1 mg/kg Q1W for 17 days). Following treatment, tumor biopsies were collected for four representative animals from each treatment group, formalin-fixed, and paraffin-embedded. Tumor samples were sectioned and stained with anti-CD3 and anti-CD8 antibodies or isotype control. A hematoxylin nuclear counterstain was also applied. Image analysis and quantification were conducted using ImageDx™. Increased CD3^+ and CD8^+ T cell staining within the tumor sample for eIF4A inhibitor treatment relative to vehicle indicates an increase in infiltrating lymphocytes into the tumor.
Compound,procollagen type I secretion (PIPC) [1],procollagen type I levels (myofibroblasts [2]),levels of secreted TGFβ (myofibroblasts [3]),α-SMA protein level (ratio of α-SMA to β-actin) [4],CD3+ T cells in the KPC-3 tumor samples ([5]; 0.3 mg/kg Q2D for 17 days),CD3+ T cells in the KPC-3 tumor samples ([5]; 1 mg/kg Q1W for 17 days),"CD8+ T cells in the KPC-3 tumor samples ([5]; 1 mg/kg Q1W for 17 days, FIG. 4C)"
COc1cc2c(c(OC)n1)[C@]1(O)[C@H](O)[C@H](CN(C)C)[C@@H](c3ccccc3)[C@]1(c1ccc(C#N)cc1)O2 (racemic) [Cmp1],blocked the increase,dose-dependent decrease,reduced the levels of secreted TGFβ in a dose-dependent manner,dose-dependent reduction,significant increase,significant increase,significant increase
"COc1nc(Cl)cc2c1[C@]1(O)[C@H](O)[C@H](CN(C)C)[C@@H](c3ccccc3)[C@]1(c1ccc(C#N)cc1)O2 [Cmp2, 4-((5aR,6S,7S,8R,8aS)-3-chloro-7-((dimethylamino)methyl)-8,8a-dihydroxy-1-methoxy-6-phenyl-6,7,8,8a-tetrahydro-5aH-cyclopenta[4,5]furo[3,2-c]pyridin-5a-yl)benzonitrile]",blocked the increase,–,–,dose-dependent reduction,–,–,–
